According to patent publication US20260345582A1, “PRODRUG FOR ANTI-AGING RELATED DISEASES AND USE METHOD THEREOF” (Beijing SunCell Bio-Medical Co., Ltd., priority 2022, published 2026):

Legend:
[1] = test system: mouse model of Bleomycin-induced pulmonary fibrosis; assay: Masson staining of lungs (degree of fibrosis), Bleomycin-induced pulmonary fibrosis; format: in vivo, C57 mice; details: of 6 animals; A13 2 mg/kg, A13bGa1 5 mg/kg
Experimental: (§1) A. Modelling of a mouse model of Bleomycin-induced pulmonary fibrosis, and the schematic diagram of treatment. Mice were modelled with Bleomycin administered via tracheal instillation on day 0, and the treatment with intraperitoneal injection of the drug was started on day 4. The drug was administered for 3 consecutive days per week, followed by a 4-day withdrawal, for 4 weeks.
(§2) D. Representative results of HE and Masson staining of the pathological sections of lungs taken from different groups of mice after execution. Normal represents the saline tracheal instillation modelling control group; Vehicle represents the vehicle administration control group; A13bGa1 represents the prodrug treatment group; A13 represents the A1331852 treatment group. Scale bar: 500 μm.
(§3) All drugs were mixed in 85% physiological saline, 5% DMSO (Sigma, D8418) and 10% Solutol HS 15 (Sigma, 42966), and administered to mice by intraperitoneal (i.p.) injection. To treat the bleomycin-injured young mice, A13 (2 mg/kg), A13bGa1 (5 mg/kg), or an empty vehicle control was administered three consecutive days per week for four weeks. A1331852 (abbreviated as A13) was purchased from MCE.
(§4) Bleomycin-Induced Pulmonary Fibrosis
(§5) Bleomycin was purchased from Selleck. As previously reported (Bivas-Benita et al., Eur J Pharm Biopharm 61, 214-218 (2005)), a transtracheal injection of bleomycin (2 mg/kg) was performed to the young male C57 mice (8-10 weeks old) to induce lung fibrosis. Drug treatment was initiated four days after modelling, and the drug was administered three consecutive days per week for four consecutive weeks, after which the mice were executed for material collection.
Masson trichrome stain kit (Solarbio, G1340) was used to detect fibrosis in the lung tissue. The formalin-fixed, and paraffin-embedded lung sections were dewaxed with xylene, and then rehydrated with 100% alcohol, 95% alcohol and distilled water. The sections were then stained according to the manufacturer's instructions. Afterwards, the sections were rapidly dehydrated with 95% alcohol and 100% alcohol, cleaned with xylene and covered with the coverslips. Images were acquired using a bright-field optical microscope (10× eyepiece) (OLYMPUS, BX43), and the degree of fibrosis of the lung tissue was graded according to the intensity of staining (weakly positive, moderately positive, moderately strong positive, and very strong positive).

[2] = test system: HEF cells (primary human embryonic skin fibroblast), induced senescent with Etoposide; assay: in vitro killing of induced senescent HEF cells (CCK-8); format: cell-based
Description: C. Comparison of the killing effects of three Bcl-xL inhibitors on the induced senescent HEF cell model. HEF represents the isolated early generation uninduced HEF cell group; and HEF-ETO represents the senescent HEF cell group induced with Etoposide (ETO) in vitro.
Induction of the Cellular Senescence

[3] = test system: mouse model of Bleomycin-induced pulmonary fibrosis; assay: HE pathological changes in the lungs, Bleomycin-induced pulmonary fibrosis; format: in vivo, C57 mice; details: A13 2 mg/kg, A13bGa1 5 mg/kg; for inflammation and consolidation of the mouse lungs (HE pathology): i.p. four weeks, FIG. 5D and Table 1
Experimental: as §1, §2, §3, §4, §5
Histopathological Examination
All animals (including those found dead, dying, and euthanised) were autopsied, and the lung tissues were preserved. The lungs were separated, the fat and other tissues were removed, the surface fluid was absorbed using a filter paper, and the whole lungs were weighed (those found dead, dying, and euthanised) for calculation of the lung weight index. The right lung and bronchiole were fixed in 10% neutral buffered formalin solution, embedded in paraffin, sectioned, prepared into slices, and stained with HE for a histopathological and morphological observation of the lung. The degree of the lesions such as the inflammatory cell infiltration in the lung tissue were graded according to a 4-grade classification (slight, mild, moderate, severe) using a standard terminology for diagnosis and classification. The left lung tissue was clipped and stored temporarily below −60′C.

[4] = test system: mouse model of Bleomycin-induced pulmonary fibrosis; assay: lung specific gravity index in Bleomycin-induced pulmonary fibrosis; format: in vivo, C57 mice; details: i.p. four weeks; A13 2 mg/kg, A13bGa1 5 mg/kg; FIG. 5C
Experimental: as §1
C. Comparison of lung specific gravity index calculated for different groups of mice. After completion of drug administration according to the dosing protocol, the mice were executed and the lungs of the mice were taken and weighed to calculate the lung specific gravity index, lung index=the lung weight (g)/the body weight (g)×100%. A13 represents the A1331852 treatment group at a dose of 2 mg/kg; A13bGa1 represents prodrug treatment group at a dose of 5 mg/kg; VEH represents the vehicle treatment control group; and NC represents the saline tracheal instillation modelling control group. Each dot in the panel represents the result of the lung specific gravity index of 1 mouse, n=5 in the saline modelling control group, and n=6 in other groups. The statistical analysis was performed using unpaired T-test, ns indicates no statistical difference; with *p<0.05; and **p<0.01. […]

`Cc1c(-c2ccc(N3CCc4cccc(C(=O)Nc5nc6ccccc6s5)c4C3)nc2C(=O)O)cnn1CC12CC3CC(CC(C3)C1)C2` [Compound A13, 3-[1-(adamantan-1-ylmethyl)-5-methylpyrazol-4-yl]-6-{8-[(1,3-benzothiazol-2-yl)carbamoyl]-3,4-dihydro-1H-isoquinolin-2-yl}pyridine-2-carboxylic acid] was tested, and the “degree of fibrosis, Masson staining: Moderately strong positive (+++)” value [1] was 1 number of animals, the “degree of fibrosis, Masson staining: extremely strong positive (++++)” value [1] was 2 number of animals and the “degree of fibrosis, Masson staining: moderately positive (++)” value [1] was 1 number of animals. The “degree of fibrosis, Masson staining: not positive (−)” value [1] was 0 number of animals, the “degree of fibrosis, Masson staining: weakly positive (+)” value [1] was 2 number of animals and the “selective killing effect on the senescent cells” value ([2]; HEF-ETO vs HEF, FIG. 1C) was “selective killing effect on the senescent cells”. For the same molecule, the “inflammation and consolidation of the mouse lungs (HE pathology)” value [3] was “no improvement” and the “lung specific gravity index (lung weight/body weight×100%)” value [4] was “no improvement in the lung index”.

In the case of `Cc1c(-c2ccc(N3CCc4cccc(C(=O)Nc5nc6ccccc6s5)c4C3)nc2C(=O)OCc2ccc(O[C@@H]3O[C@H](CO)[C@H](O)[C@H](O)[C@H]3O)c([N+](=O)[O-])c2)cnn1CC12CC3CC(CC(C3)C1)C2` [Compound A13bGa1], the “degree of fibrosis, Masson staining: Moderately strong positive (+++)” value [1] is reported as 0 number of animals, the “degree of fibrosis, Masson staining: extremely strong positive (++++)” value [1] is reported as 0 number of animals and the “degree of fibrosis, Masson staining: moderately positive (++)” value [1] is reported as 1 number of animals. For the same molecule, the “degree of fibrosis, Masson staining: not positive (−)” value [1] was 3 number of animals, the “degree of fibrosis, Masson staining: weakly positive (+)” value [1] was 2 number of animals and the “killing of the senescent cells, efficiency and selectivity” value ([2]; HEF cells, human skin-derived fibroblasts, FIG. 3B) was “highly efficient and selective in killing the senescent cells”. The “inflammation and consolidation of the mouse lungs (HE pathology)” value [3] was “significant improvement”, the “Bleeding, alveolar/interstitial: mild (++)” value ([3]; of 6 animals) was 0 number of animals and the “Bleeding, alveolar/interstitial: moderate (+++)” value ([3]; of 6 animals) was 0 number of animals. The “Bleeding, alveolar/interstitial: negative (−)” value ([3]; of 6 animals) was 3 number of animals, the “Bleeding, alveolar/interstitial: slight (+)” value ([3]; of 6 animals) was 3 number of animals and the “Exudative oedema, alveolar: mild (++)” value ([3]; of 6 animals) was 2 number of animals. For the same molecule, the “Exudative oedema, alveolar: moderate (+++)” value ([3]; of 6 animals) was 1 number of animals, the “Exudative oedema, alveolar: negative (−)” value ([3]; of 6 animals) was 2 number of animals and the “Exudative oedema, alveolar: severe (++++)” value ([3]; of 6 animals) was 0 number of animals. The “Exudative oedema, alveolar: slight (+)” value ([3]; of 6 animals) was 1 number of animals, the “The infiltration of the inflammatory cells: mild (++)” value ([3]; of 6 animals) was 0 number of animals and the “The infiltration of the inflammatory cells: moderate (+++)” value ([3]; of 6 animals) was 1 number of animals. The “The infiltration of the inflammatory cells: negative (−)” value ([3]; of 6 animals) was 4 number of animals, the “The infiltration of the inflammatory cells: slight (+)” value ([3]; of 6 animals) was 1 number of animals and the “Thickening and consolidation of the pulmonary septum: mild (++)” value ([3]; of 6 animals) was 5 number of animals. The “Thickening and consolidation of the pulmonary septum: moderate (+++)” value ([3]; of 6 animals) was 0 number of animals, the “Thickening and consolidation of the pulmonary septum: negative (−)” value ([3]; of 6 animals) was 1 number of animals and the “Thickening and consolidation of the pulmonary septum: severe (++++)” value ([3]; of 6 animals) was 0 number of animals. For the same molecule, the “Thickening and consolidation of the pulmonary septum: slight (+)” value ([3]; of 6 animals) was 0 number of animals and the “lung specific gravity index (lung weight/body weight×100%)” value [4] was “recovered to the normal level”.
